Measurements: patent publication US20160272937A1, “METHODS OF GENERATING INTERMEDIATE MESODERM CELLS FROM HUMAN PLURIPOTENT STEM CELLS” (THE BRIGHAM AND WOMEN'S HOSPITAL, INC., priority 2013, published 2016)

Tested on: human pluripotent stem cells (hPSCs)
Assay: Spontaneous differentiation of CHIR-induced mesendodermal cells after CHIR withdrawal, marker immunocytochemistry
Type: cell-based
Conditions: day 4
Description: Mesendoderm differentiation—the media is changed to Advanced RPMI (A-RPMI, Invitrogen) supplemented with 1×L-glutamax and 1× penicillin/streptomycin and either CHIR99021 (CHIR, Stemgent), human Wnt3a (R&D systems), and/or human activin A (R&D systems) at the doses described. Definitive endoderm differentiation—cells are treated with A-RPMI+1×L-glu+1×P/S+5 μM CHIR for 24 hours, then A-RPMI+1×Lglu+1×P/S+100 ng/mL of activin A for 2-3 days. Hepatic differentiation—cells at the definitive endoderm stage are treated with A-RPMI+1×L-glu+1×P/S+1×B27 supplement (Invitrogen)+20 ng/mL BMP-4 (R&D systems)+10 ng/mL FGF2 (Invitrogen) for 5 days, then A-RPMI+1×L-glu+1×P/S+1×B27+10 ng/mL HGF for 5 days, then HCM Hepatocyte Culture Medium (Lonza) supplemented with 20 ng/mL Oncostatin M and 10 ng/mL HGF (Peprotech) for 5 days. Pancreatic differentiation—cells at the definitive endoderm stage are treated with DMEM/F12+2% FBS (Hyclone)+50 ng/mL FGF7 (R&D systems) for 2 days, then high-glucose DMEM (Mediatech)+1% B27+2 μM retinoic acid (Sigma)+0.25 μM KAAD cyclopamine (EMD Millipore)+100 ng/mL recombinant human Noggin (R&D systems) for 4 days, then high-glucose DMEM+1% B27+100 ng/mL Noggin+300 nM indolactam V (Stemgent)+1 μM ALK5 inhibitor II (Axxora) for 4 days. Anterior foregut endoderm differentiation—cells at the definitive endoderm stage are treated with DMEM/F12+1×L-glu+1×B27+200 ng/mL Noggin+10 μM SB431542 (Stemgent) for 3 days. For hindgut endoderm differentiation, cells at the definitive endoderm stage were treated with A-RPMI+1×L-glu+1×P/S+2% FBS+500 ng/mL FGF4 (R&D systems)+5 μM CHIR for 4 days. […] Intermediate mesoderm differentiation—cells are treated with A-RPMI+1×L-glu+1×P/S+5 μM CHIR for 24, 36, or 48 hours, then A-RPMI+1×L-glu+1×P/S+100 ng/mL FGF2+1 μM retinoic acid for 2-3 days. Cap mesenchyme differentiation—cells were treated with A-RPMI+13 L-glu+13 P/S+[…] CHIR for 36 hours, then A-RPMI+13 L-glu+13 P/S+100 ng/ml FGF2+1 mM retinoic acid for 36-42 hours, then A-RPMI+13L-glu+13P/S+100 ng/ml FGF-9 (R&D Systems)+10 ng/ml activin A for 3 days.
For immunofluorescence studies, cultures are washed once with PBS (Invitrogen) and fixed in 4% paraformaldehyde for 15 min at room temperature (RT). Fixed cells are then washed three times in PBS and incubated in blocking buffer (0.3% Triton X-100 (Fisher Scientific) and 5% normal donkey serum (EMD Millipore) in PBS) for 1 hour at RT.
The cells are then incubated with primary antibody overnight at 4° C. or for 2 hours at RT in antibody dilution buffer (0.3% Triton X-100 and 1% BSA (Roche) in PBS). Cells are then washed three times in PBS and incubated with Alexa Fluor 488-, 555-, or 647-conjugated secondary antibodies (1:500) (Molecular Probes) in antibody dilution buffer for 1 hour at RT. For immunostaining with Biotinylated Lotus Tetragonolobus Lectin (LTL, Vector Labs), a Streptavidin/Biotin Blocking Kit (Vector Labs) and Alexa Fluor 488- or 647-conjugated Streptavidin (Molecular Probes) were used according to manufacturer's instructions.
Nuclei can be counterstained with DAPI (Sigma). […] Immunofluorescence is visualized using an inverted fluorescence microscope (Nikon Eclipse Ti, Tokyo, Japan). Quantification is performed by counting a minimum of five random fields at 10× magnification.
To determine whether treatment with CHIR alone is sufficient to induce differentiation towards IM, the Inventors investigated the intrinsic multipotency of CHIR-induced mesendodermal cells by withdrawing CHIR from the culture media after either 24 or 48 hours of induction and allowing the cells to differentiate for another 3-4 days (FIG. 2A).

[1] = CHIR pulse 24 hours then withdrawal

## Cc1c[nH]c(-c2cnc(NCCNc3ccc(C#N)cn3)nc2-c2ccc(Cl)cc2Cl)n1 [CHIR99021]
[1]
  FOXF1+ lateral plate mesoderm cells: approximately 40%
  cells expressing pluripotency marker OCT4: 30-40%
CHIR treatment 48 hours
  appearance of OCT4+ cells: eliminated the appearance of OCT4+ cells
  cells staining positive for FOXF1: greater than 80%
CHIR treatment alone
  cells expressing PAX6: < 1%
  cells expressing SOX17: < 1%
  cells with protein expression of IM marker PAX2: < 1%
  cells with protein expression of paraxial mesoderm marker TBX6: < 10%
